In general, GI50 refers to the concentration at which growth is held to half of that of the control. A higher GI50 goes with lower sensitivity of the cells. As usually defined, the IC50 is the concentration at which inhibition is half-maximal. A lower IC50 goes with inhibition by little substance.

The results in this text go back to ChEMBL document CHEMBL3352140, “Targeting the PPM1D phenotype; 2,4-bisarylthiazoles cause highly selective apoptosis in PPM1D amplified cell-lines” (Bioorg Med Chem Lett, 2014).

Activity calls are given as the source filed them. The rule behind the calls is not given here.

Assay [1] in a line: Anticancer activity against human SMOV2 cells after 3 days incubation by SRB proliferation assay. Format: functional. As to conditions: SMOV2, 72 h. (In general: In SRB staining, fixed cells bind dye roughly in proportion to their protein.)
The target in assay [2] is T1, Protein phosphatase 1D (Homo sapiens, UniProt O15297).
T1 sequence (O15297 whole entry): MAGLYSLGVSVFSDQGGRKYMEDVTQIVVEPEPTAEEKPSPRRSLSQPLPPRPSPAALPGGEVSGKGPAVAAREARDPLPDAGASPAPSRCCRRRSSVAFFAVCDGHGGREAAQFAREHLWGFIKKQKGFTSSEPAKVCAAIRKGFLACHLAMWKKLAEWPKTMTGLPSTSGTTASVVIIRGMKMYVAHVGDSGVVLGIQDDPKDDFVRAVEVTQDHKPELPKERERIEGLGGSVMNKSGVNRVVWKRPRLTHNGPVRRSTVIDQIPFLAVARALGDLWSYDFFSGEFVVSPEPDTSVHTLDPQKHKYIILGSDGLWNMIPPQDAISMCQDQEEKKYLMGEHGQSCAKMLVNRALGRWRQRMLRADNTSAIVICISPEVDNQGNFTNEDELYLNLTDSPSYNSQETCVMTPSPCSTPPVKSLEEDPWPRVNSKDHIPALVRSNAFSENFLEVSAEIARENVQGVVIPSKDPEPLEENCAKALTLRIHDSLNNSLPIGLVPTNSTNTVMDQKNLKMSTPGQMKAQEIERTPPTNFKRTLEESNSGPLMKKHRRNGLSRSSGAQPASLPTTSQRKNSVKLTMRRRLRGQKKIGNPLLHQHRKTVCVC
Put plainly: Inhibition of PPM1D (unknown origin) phosphatase activity using peptide substrate TDDEMT*GY*VAT by malachite green/molybdate based assay.

Assay [3] is described as follows: Anticancer activity against human TOV21G cells after 3 days incubation by SRB proliferation assay. The format is functional. Particulars: 72 h.
For assay [4], the system named is MCF7. As to the kind of experiment: Anticancer activity against PPM1D amplified human MCF7 cells after 5 days incubation by SRB proliferation assay. Format: functional. As to conditions: MCF7, 120 h.
For assay [5], the system named is HeLa. Put plainly: Anticancer activity against PPM1D non-amplified human HeLa cells after 5 days incubation by SRB proliferation assay. As to conditions: 120 h. The format is functional.
The nature of assay [6]: Anticancer activity against PPM1D non-amplified human SMOV2 cells after 5 days incubation by SRB proliferation assay. Particulars: SMOV2, 120 h. Format: functional.
A short description of assay [7]: Anticancer activity against PPM1D non-amplified human CAMA1 cells after 5 days incubation by SRB proliferation assay. Format: functional. As to conditions: CAMA-1, 120 h.
Assay [8] in a line: Anticancer activity against […] human TOV21G cells after 5 days incubation by SRB proliferation assay. Format: functional. Particulars: 120 h.
Assay [9] is described as follows: Anticancer activity against PPM1D amplified human KPL1 cells after 5 days incubation by SRB proliferation assay. As to conditions: KPL-1, 120 h. Format: functional.
The nature of assay [10]: Anticancer activity against human SMOV2 cells after 5 days incubation by SRB proliferation assay. As to conditions: SMOV2, 120 h. Format: functional.
A short description of assay [11]: Anticancer activity against human TOV21G cells after 5 days incubation by SRB proliferation assay. The format is functional. As to conditions: 120 h.
Assay [12] deals with TOV21G. As to the kind of experiment: Induction of apoptosis in […] human TOV21G cells assessed as increase in PARP cleavage at 1.25 to 5 uM after 24 hrs by Western blot analysis. Format: functional, cell-based. In general terms: In western blotting, separated proteins are transferred to a membrane and probed.
Assay [13] has as its system SMOV2. Put plainly: Induction of apoptosis in human SMOV2 cells assessed as increase in PARP cleavage at 1.25 to 5 uM after 24 hrs by Western blot analysis. The format is functional, cell-based.
The target of assay [14] is T2, Protein phosphatase 1D (Homo sapiens) (UniProt O15297).
T2 sequence (whole entry): T1 sequence (O15297 whole entry)
Particulars: TOV21G, 1.25 to 5 uM.
Description: Inhibition of PPM1D in non-amplified human TOV21G cells assessed as increase in P-S15-p53 level at 1.25 to 5 uM after 24 hrs by Western blot analysis

Assay [15] addresses T2, Protein phosphatase 1D (Homo sapiens). As to conditions: SMOV2, 1.25 to 5 uM.
Description: Inhibition of PPM1D in human SMOV2 cells assessed as increase in P-S15-p53 level at 1.25 to 5 uM after 24 hrs by Western blot analysis

Turning to `Cc1cc(F)ccc1-c1nc(-c2ccc3[nH]c(=O)oc3c2)cs1`, the GI50 in [1] was 0.002 µM; in assay [3], over 50 µM. Also, the IC50 in assay [2] is over 100 µM.

With `CCc1cc(F)ccc1-c1nc(-c2ccc3[nH]c(=O)oc3c2)cs1`, the GI50 is 0.013 µM in assay [1] and over 50 µM in assay [3]. Besides, the IC50 in [2] is under 20 µM.

Take `Cc1cc(F)ccc1-c1nc(-c2ccc3c(c2)[nH]c(=O)n3CCN(C)C)cs1`: the concentration for 50% growth inhibition (GI50) in [1] and in [3] was over 50 µM in each case. In assay [2], this compound returned a half-inhibitory concentration (IC50) of under 20 µM.

Consider `COCCOCc1cc(F)ccc1-c1nc(-c2ccc3[nH]c(=O)[nH]c3c2)cs1`, for which the GI50 in [4] is 0.005 µM; in assay [1], 0.013 µM; in assay [5], 3.9 µM; in assay [3], over 50 µM; in [6] it was 20 µM; in [7] it was 15 µM. In addition, the GI50 in assay [8] was found to be 5.6 µM; in assay [9], 0.01 µM. In [2], this compound gave an IC50 of under 20 µM.

`O=c1[nH]c2ccc(-c3csc(-c4ccc(F)cc4COCCN4CCCC4)n3)cc2o1`: the values for the GI50 in assay [1] and in [3] were 0.013 µM and over 50 µM, respectively. In assay [2], this compound yielded an IC50 of under 20 µM.

`O=c1[nH]c2ccc(-c3csc(-c4ccc(F)c(F)c4)n3)cc2o1`: the GI50 is 0.29 µM in assay [1] and over 50 µM in assay [3]. Besides, the IC50 in assay [2] is under 20 µM.

`Cc1cc(F)ccc1-c1nc(-c2ccc3c(c2)CC(=O)N3)cs1`: the concentration for 50% growth inhibition (GI50) in assay [1] is 0.002 µM; in assay [3], over 50 µM. The IC50 in assay [2] was under 20 µM.

In turn, `Cc1ccc(-c2nc(-c3ccc4[nH]c(=O)oc4c3)cs2)cc1` yielded an IC50 in assay [2] of under 20 µM. The GI50 in [10] is 24 µM; in assay [11] it was over 50 µM.

For the compound `O=c1[nH]c2ccc(-c3csc(-c4ccccc4)n3)cc2o1`, the 50% inhibitory concentration (IC50) in assay [2] is under 20 µM. Besides, the 50% growth inhibitory concentration (GI50) in assay [10] is 2 µM; in assay [11] it was over 50 µM.

For the compound `CN(C)Cc1cc(F)ccc1-c1nc(-c2ccc3[nH]c(=O)oc3c2)cs1`, the values for the GI50 in assay [1] and in assay [3] were 0.01 µM and over 50 µM, respectively. The compound further returned an IC50 in assay [2] of under 20 µM.

Take `CN(C)CCc1cc(F)ccc1-c1nc(-c2ccc3[nH]c(=O)oc3c2)cs1`: the 50% growth inhibitory concentration (GI50) in assay [1] was 0.04 µM; in assay [3], over 50 µM. This compound showed a concentration for half-maximal inhibition (IC50) in assay [2] of under 20 µM.

For `O=c1[nH]c2ccc(-c3csc(-c4cccc(F)c4)n3)cc2o1`, in assay [2], the 50% inhibitory concentration (IC50) was under 20 µM. Besides, the GI50 in assay [10] is 0.85 µM; in assay [11] it was over 50 µM.

With `NCCOCc1cc(F)ccc1-c1nc(-c2ccc3[nH]c(=O)oc3c2)cs1`, the concentration for 50% growth inhibition (GI50) is 0.003 µM in assay [1] and over 50 µM in assay [3]. In [2], this compound yielded a half-inhibitory concentration (IC50) of under 20 µM.

As to `O=c1[nH]c2ccc(-c3csc(-c4ccc(F)c(O)c4)n3)cc2o1`, the figures for the concentration for 50% growth inhibition (GI50) in assay [1] and in [3] were 1.6 µM and over 50 µM, respectively. The IC50 in assay [2] was under 20 µM.

Consider `O=c1[nH]c2ccc(-c3csc(-c4ccc(F)cc4CN4CCOCC4)n3)cc2o1`, for which the 50% growth inhibitory concentration (GI50) is 0.52 µM in assay [1] and over 50 µM in [3]. Besides, the IC50 in assay [2] was under 20 µM.

`Cc1cc(-c2nc(-c3ccc4[nH]c(=O)oc4c3)cs2)ccc1F`: the GI50 in assay [1] is 0.25 µM; in assay [3] it was over 50 µM. Further, in [2], the IC50 was under 20 µM.

`O=c1[nH]c2ccc(-c3csc(-c4ccncc4)n3)cc2o1` displayed a half-maximal inhibitory concentration (IC50) in assay [2] of under 20 µM. Moreover, the figures for the GI50 in assay [10] and in assay [11] were 2.8 µM and over 50 µM, respectively.

On to `COCCOCc1cc(F)ccc1-c1nc(-c2ccc3[nH]c(=O)oc3c2)cs1`, for which the results for the GI50 in assay [1] and in [3] were 0.002 µM and over 50 µM, respectively. The same compound returned an IC50 in [2] of under 20 µM.

Turning to `O=c1[nH]c2ccc(-c3csc(-c4ccc(F)cc4CO)n3)cc2o1`, the values for the GI50 in assay [1] and in assay [3] were 0.023 µM and over 50 µM, respectively. In assay [2], this compound returned an IC50 of under 20 µM.

On to `N#Cc1ccc(-c2nc(-c3ccc4[nH]c(=O)oc4c3)cs2)cc1`, for which the 50% inhibitory concentration (IC50) in [2] is under 20 µM. For the same compound, the figures for the GI50 in assay [10] and in assay [11] were 2 µM and over 50 µM, respectively.

As for `Cc1cc(F)ccc1-c1nc(-c2ccc3[nH]c(=O)[nH]c3c2)cs1`, the GI50 was 0.001 µM in [1] and over 50 µM in assay [3]. In [2], the concentration for half-maximal inhibition (IC50) was under 20 µM.

On to `COc1cc(F)ccc1-c1nc(-c2ccc3[nH]c(=O)oc3c2)cs1`, for which the concentration for 50% growth inhibition (GI50) is 5.7 µM in assay [1] and over 50 µM in assay [3]. Further, the IC50 in assay [2] is under 20 µM.

Turning to `O=c1[nH]c2ccc(-c3csc(-c4ccc(F)cc4)n3)cc2o1`, the outcome in [12] was inactive. Besides, the outcome in assay [13] was Active. Further, the inhibition entry in assay [14] was “inactive”. The concentration for 50% growth inhibition (GI50) was 0.13 µM in assay [1], 0.01 µM in assay [10], over 50 µM in assay [3] and over 50 µM in assay [11]. For the same compound, the IC50 in [2] was found to be 23 µM. In addition, in [15], the inhibition entry is “Active”.

For `Cc1cc(F)ccc1-c1nc(-c2ccc3[nH]c(=O)n(CCN(C)C)c3c2)cs1`, the figures for the GI50 in assay [1] and in assay [3] were 0.003 µM and over 50 µM, respectively. Also, the IC50 in assay [2] was under 20 µM.

Consider `O=c1[nH]c2ccc(-c3csc(-c4ccc(Cl)cc4)n3)cc2o1`, for which, in [2], the IC50 is under 20 µM. Besides, the GI50 in assay [10] is 0.63 µM; in assay [11], over 50 µM.

Regarding `O=c1[nH]c2ccc(-c3csc(-c4ccc(F)c(C(F)(F)F)c4)n3)cc2o1`, the GI50 in assay [1] and in [3] was over 50 µM each time. Besides, the 50% inhibitory concentration (IC50) in assay [2] was under 20 µM.
